Results published in patent US8895745B2, “Bicyclic heterocyclic compounds as FGFR inhibitors” (Astex Therapeutics Limited, priority 2006, dated 2014).
pIC50: −log10 of the molar value. Where a name gives a salt, the structure may show the parent alone.

The compounds below were run against FGFR3 (Homo sapiens (Human), UniProt P22607) (assay: FGFR3 in vitro kinase inhibitory activity assay (TRF, biotinylated Flt3 substrate)). Details: % inhibition at 0.001 μM; read-out: FGFR3 IC50 or % inhibition.
Chain of FGFR3 (P22607 23-806): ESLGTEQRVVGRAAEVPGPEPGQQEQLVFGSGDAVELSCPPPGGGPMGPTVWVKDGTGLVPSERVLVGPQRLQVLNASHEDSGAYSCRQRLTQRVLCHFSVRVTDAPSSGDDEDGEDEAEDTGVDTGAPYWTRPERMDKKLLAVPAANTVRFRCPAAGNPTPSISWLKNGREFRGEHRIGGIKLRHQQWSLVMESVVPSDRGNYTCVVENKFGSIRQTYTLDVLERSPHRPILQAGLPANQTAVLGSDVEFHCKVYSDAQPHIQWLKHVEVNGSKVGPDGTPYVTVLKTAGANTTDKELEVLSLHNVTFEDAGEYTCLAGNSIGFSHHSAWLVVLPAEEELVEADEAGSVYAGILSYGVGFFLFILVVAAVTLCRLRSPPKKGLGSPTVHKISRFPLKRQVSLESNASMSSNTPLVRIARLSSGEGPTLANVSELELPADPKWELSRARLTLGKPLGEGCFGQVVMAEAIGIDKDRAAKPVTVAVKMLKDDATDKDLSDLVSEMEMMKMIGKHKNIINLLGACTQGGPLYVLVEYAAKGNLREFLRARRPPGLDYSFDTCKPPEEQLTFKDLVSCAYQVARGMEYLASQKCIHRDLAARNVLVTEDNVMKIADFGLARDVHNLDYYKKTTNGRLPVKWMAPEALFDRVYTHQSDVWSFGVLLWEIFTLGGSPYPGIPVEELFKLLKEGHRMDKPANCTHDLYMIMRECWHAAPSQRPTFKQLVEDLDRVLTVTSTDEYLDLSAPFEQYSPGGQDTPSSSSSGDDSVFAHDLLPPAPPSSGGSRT
Assay type: biochemical
Experimental: Enzymes (from Upstate) were prepared at 2× final concentration in 1× kinase assay buffer (as described below). Enzymes were then incubated with test compounds, biotinylated Flt3 substrate (biotin—DNEYFYV) (Cell Signalling Technology Inc.) and ATP. The reaction was allowed to proceed for 3 hours (FGFR3) or 2.5 hrs (PDGFR-beta) at room temperature on a plate shaker at 900 rpm before being stopped with 20 μl of 35 mM EDTA, pH 8 (FGFR3) or 55 mM EDTA, pH 8 (PDGFR-beta). […] The plate was then read on a Packard Fusion plate reader in TRF mode.
Kinase Assay buffers were:
A: 50 mM HEPES pH 7.5, 6 mM MnCl2, 1 mM DTT, 0.1% TritonX-100
In the case of `Cc1c(-c2ccn3c(-c4cccc(NC(=O)NCC(F)(F)F)c4)cnc3c2)ncn1C` [Example 374, 1-{3-[7-(1,5-Dimethyl-1H-imidazol-4-yl)-imidazo[1,2-a]pyridin-3-yl]-phenyl}-3-(2,2,2-trifluoro-ethyl)-urea], the inhibition at 0.001 µM was 64%.

Same assay, conditions: read-out: IC50 less than 1 μM or at least 50% inhibition of the FGFR3 activity at a concentration of 1 μM
In the case of `Fc1ccc(-c2ccn3c(-c4ccc5[nH]ccc5c4)cnc3c2)cc1` [Example 70, 7-(4-Fluoro-phenyl)-3-(1H-indol-5-yl)-imidazo[1,2-a]pyridine formate salt], the pIC50 was > 6.00. In the case of `COc1ccc(-c2ccc3ncc(-c4cccc(NC(C)=O)c4)n3c2)cc1` [Example 100, N-{3-[6-(4-Methoxy-phenyl)-imidazo[1,2-a]pyridin-3-yl]-phenyl}-acetamide formate salt], the pIC50 was > 6.00. With `COc1cncc(-c2ccc3ncc(-c4cccc(NC(C)=O)c4)n3c2)c1` [Example 101, N-{3-[6-(5-Methoxy-pyridin-3-yl)-imidazo[1,2-a]pyridin-3-yl]-phenyl}-acetamide] the pIC50 was > 6.00. In the case of `Cc1nc(C)n(-c2ccn3c(-c4cccc(NC(=O)NCC(F)(F)F)c4)cnc3c2)n1` [Example 414, 1-{3-[7-(3,5-Dimethyl-[1,2,4]triazol-1-yl)-imidazo[1,2-a]pyridin-3-yl]-phenyl}-3-(2,2,2-trifluoro-ethyl)-urea], the pIC50 was > 6.00.

Same assay, conditions: read-out: IC50 less than 10 μM or at least 50% inhibition of the FGFR3 activity at a concentration of 10 μM
`Cc1nc(C)n(-c2ccn3c(-c4cccc(NC(=O)NCC(F)(F)F)c4)cnc3c2)n1` [Example 414, 1-{3-[7-(3,5-Dimethyl-[1,2,4]triazol-1-yl)-imidazo[1,2-a]pyridin-3-yl]-phenyl}-3-(2,2,2-trifluoro-ethyl)-urea] was tested, and the pIC50 was > 5.00.

Each compound was assayed on LP-1 cell line (assay: Cell-based pERK ELISA method, LP-1 cells). Details: Homo sapiens, LP-1, read-out: IC50 less than 1 μM or at least 50% inhibition at a concentration of 1 μM, LP-1 pERK ELISA.
Experimental: LP-1 or JIM-1 multiple myeloma cells were seeded in 96 well plates at 1×10^6 cells/ml in 200 ul per well in serum free media. […] Cells were incubated for 16 h at 37° C. prior to the addition of a test compound for 30 minutes. Test compounds were administered at a 0.1% final DMSO concentration. […] ELISA plates and standards were prepared according o the standard DuoSet protocols and the relative amounts of pERK to total ERK in each sample calculated according to the standard curve.
In particular, compounds of the invention were tested against the LP-1 cell line (DSMZ no.: ACC 41) derived from human multiple myeloma.
For `CNC(=O)/C=C/c1ccn2c(-c3cccc(NC(=O)NCC(F)(F)F)c3)cnc2c1` [Example 344, (E)-N-Methyl-3-(3-{3-[3-(2,2,2-trifluoro-ethyl)-ureido]-phenyl}-imidazo[1,2-a]pyridin-7-yl)-acrylamide], the pIC50 was > 6.00. `CN(C)C(=O)/C=C/c1ccn2c(-c3cccc(NC(=O)NCC(F)(F)F)c3)cnc2c1` [Example 345, (E)-N,N-Dimethyl-3-(3-{3-[3-(2,2,2-trifluoro-ethyl)-ureido]-phenyl}-imidazo[1,2-a]pyridin-7-yl)-acrylamide] was tested, and the pIC50 was > 6.00. For `Cc1cc2ncc(-c3cccc(NC(=O)NCC(F)(F)F)c3)n2cc1Cl` [Example 346, 1-[3-(6-Chloro-7-methyl-imidazo[1,2-a]pyridin-3-yl)-phenyl]-3-(2,2,2-trifluoro-ethyl)-urea], the pIC50 was > 6.00. In the case of `Cc1nc(-c2ccn3c(-c4cccc(NC(=O)NCC(F)(F)F)c4)cnc3c2)cs1` [Example 348, 1-{3-[7-(2-Methyl-thiazol-4-yl)-imidazo[1,2-a]pyridin-3-yl]-phenyl}-3-(2,2,2-trifluoro-ethyl)-urea], the pIC50 was > 6.00. In the case of `Cn1cc(-c2cnc3c(-c4cncc(NC(=O)NCC(F)(F)F)c4)cnn3c2)cn1` [Example 349, 1-{5-[6-(1-Methyl-1H-pyrazol-4-yl)-pyrazolo[1,5-a]pyrimidin-3-yl]-pyridin-3-yl}-3-(2,2,2-trifluoro-ethyl)-urea], the pIC50 was > 6.00. For `CC(C)(O)c1ccc(-c2ccn3c(-c4cccc(NC(=O)NCC(F)(F)F)c4)cnc3c2)cn1` [Example 351, 1-(3-{7-[6-(1-Hydroxy-1-methyl-ethyl)-pyridin-3-yl]-imidazo[1,2-a]pyridin-3-yl}-phenyl)-3-(2,2,2-trifluoro-ethyl)-urea], the pIC50 was > 6.00. For `Cc1nc(C)n(-c2ccn3c(-c4cccc(NC(=O)NCC(F)(F)F)c4)cnc3c2)n1` [Example 414, 1-{3-[7-(3,5-Dimethyl-[1,2,4]triazol-1-yl)-imidazo[1,2-a]pyridin-3-yl]-phenyl}-3-(2,2,2-trifluoro-ethyl)-urea], the pIC50 was > 6.00.

Same assay, conditions: Homo sapiens, LP-1, read-out: LP-1 pERK ELISA (μM)
`CSc1nnc(-c2ccn3c(-c4cccc(NC(=O)NCC(F)(F)F)c4)cnc3c2)o1` [Example 354, 1-{3-[7-(5-Methylsulfanyl-[1,3,4]oxadiazol-2-yl)-imidazo[1,2-a]pyridin-3-yl]-phenyl}-3-(2,2,2-trifluoro-ethyl)-urea] showed an IC50 of 0.0157 µM. Work on `Cn1nnc(-c2ccn3c(-c4cccc(NC(=O)NCC(F)(F)F)c4)cnc3c2)n1` [Example 359, 1-{3-[7-(2-Methyl-2H-tetrazol-5-yl)-imidazo[1,2-a]pyridin-3-yl]-phenyl}-3-(2,2,2-trifluoro-ethyl)-urea] yielded an IC50 of 0.033 µM. `Cc1c(-c2ccn3c(-c4cccc(NC(=O)NCC(F)(F)F)c4)cnc3c2)ncn1C` [Example 374, 1-{3-[7-(1,5-Dimethyl-1H-imidazol-4-yl)-imidazo[1,2-a]pyridin-3-yl]-phenyl}-3-(2,2,2-trifluoro-ethyl)-urea] gave an IC50 of 0.0084 µM. `Cn1cnc(-c2ccn3c(-c4cccc(NC(=O)NCC(F)(F)F)c4)cnc3c2)c1` [Example 375, 1-{3-[7-(1-Methyl-1H-imidazol-4-yl)-imidazo[1,2-a]pyridin-3-yl]-phenyl}-3-(2,2,2-trifluoro-ethyl)-urea] gave an IC50 of 0.022 µM. With `Cc1c(-c2ccn3c(-c4cccc(NC(=O)NCC(F)(F)F)c4)cnc3c2)nnn1C` [Example 378, 1-{3-[7-(1,5-Dimethyl-1H-[1,2,3]triazol-4-yl)-imidazo[1,2-a]pyridin-3-yl]-phenyl}-3-(2,2,2-trifluoro-ethyl)-urea formate] the IC50 was 0.016 µM. Compound `O=C(NCC(F)(F)F)Nc1cccc(-c2cnc3cc(-c4nncs4)ccn23)c1` [Example 384, 1-[3-(7-[1,3,4]Thiadiazol-2-yl-imidazo[1,2-a]pyridin-3-yl)-phenyl]-3-(2,2,2-trifluoro-ethyl)-urea] has an IC50 of 0.019 µM. In the case of `CC#Cc1ccn2c(-c3cccc(NC(=O)NCC(F)(F)F)c3)cnc2c1` [Example 396, 1-[3-(7-Prop-1-ynyl-imidazo[1,2-a]pyridin-3-yl)-phenyl]-3-(2,2,2-trifluoro-ethyl)-urea], the IC50 was 0.065 µM. Work on `Cc1nsc(-c2ccn3c(-c4cccc(NC(=O)NCC(F)(F)F)c4)cnc3c2)n1` [Example 399, 1-{3-[7-(3-Methyl-[1,2,4]thiadiazol-5-yl)-imidazo[1,2-a]pyridin-3-yl]-phenyl}-3-(2,2,2-trifluoro-ethyl)-urea] yielded an IC50 of 0.022 µM.
